# From patent US20210322333A1, “Lignin-PLGA Biopolymers and Nanoparticles, and their Synthesis and Use” (Board of Supervisors of Louisiana State University and …, priority 2018, published 2021)
# Marks after values point to notes of the source that are not given here.
# Assays:
# [1] = tested on: MDA-MB-231 breast cancer cells; experiment: Cell survival assay (crystal violet, 5 days); assay type: cell-based
# Method: Breast cancer cell line MDA-MB-231 was generously donated by the Burrow Lab at Tulane University School of Medicine. Cells were maintained in 5% CO2 at 37° C. and cultured in Dulbecco's modified Eagle's medium (DMEM) supplemented with 10% Hyclone Cosmic Calf Serum (HyClone Laboratories, Utah), 50 ng/mL insulin (Sigma-Aldrich, St. Louis, Mo., USA), and 1% MEMAA, NEAA, sodium pyruvate, and antibiotic-antimycotic (Gibco, Dublin, Ireland).
# MDA-MB-231 breast cancer cells were seeded at a density of 5000 cells per well in cell culture medium on 96-well Corning Costar tissue culture plastic plates (Corning Life Sciences, Corning, N.Y., USA). After 24 hours in culture, cells were treated with vehicle control (DMSO), PLGA NPs (negative control), AL-PLGA NPs (negative control), free GDC-0623 (positive control), PLGA-GDC NPs, or AL-PLGA-GDC NPs. […] Following treatment, cells were cultured for 5 days and then stained with crystal violet. Crystal violet was eluted with 33% acetic acid, and absorbance at 570 nm was measured with a BioTek Cytation 3 plate reader (BioTek Instruments Inc, Winooski, Vt., USA). The experiment was carried out with both internal replicates (n=3) and biological replicates (n=3).
# [2] = cited from earlier work
smiles,measurement,setting,value
O=C(NOCCO)c1ccc2cncn2c1Nc1ccc(I)cc1F [GDC-0623],Mean Relative Cell Number (%),"[1]; 1 nM, relative to DMSO, n = 3",96.1%
same,Mean Relative Cell Number (%),"[1]; 10 nM GDC-0623 free or NP-entrapped, relative to DMSO (Table 6)",87.8* %
same,Mean Relative Cell Number (%),"[1]; 10 nM, relative to DMSO, n = 3",83.9%
same,Mean Relative Cell Number (%),"[1]; 100 nM GDC-0623, normalized versus free drug (Table 7, first group)",100.0%
same,Mean Relative Cell Number (%),"[1]; 100 nM GDC-0623 free or NP-entrapped, relative to DMSO (Table 6)",51.4** %
same,reduction in cell numbers,"[1]; 100 nM, compared to DMSO (vehicle)",50%
same,Mean Relative Cell Number (%),"[1]; 100 nM, relative to DMSO, n = 3",46.8* %
same,Mean Relative Cell Number (%),"[1]; 1 μM, relative to DMSO, n = 3",31.3** %
same,Mean Relative Cell Number (%),"[1]; 10 μM, relative to DMSO, n = 3",30.9** %
same,Mean Relative Cell Number (%),"[1]; printed 100 nM GDC-0623, normalized versus free drug (Table 7, second group r12-r14)",100.0%
same,pharmacokinetic characteristics,[2]; Phase I trials,dose-proportional and time-dependent
same,tolerability,[2]; Phase I trials,well-tolerated
same,accumulation at steady-state,[2]; daily oral dosing,no significant accumulation
